Reference: US12091425B2 (AMGEN INC., priority 2016, dated 2024)
Where two headings read alike, the source gives them in different places.

What was measured:
[1] = rcm bond
[2] = target: T1, Mcl-1/Bim interaction, recombinant human Mcl-1 (171-327) (Homo sapiens, UniProt Q07820); assay: Cell free Mcl-1: Bim Affinity Assay (Mcl-1 HTRF); format: binding
T1 construct: made in house
Outline: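 Displacement of biotinylated Bim 51-76 peptide is followed by TR-FRET. Incubation runs overnight. Duplicate points are fitted with a four-parameter sigmoid to yield IC50.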

[3] = tested on: OPM-2 human multiple myeloma cell line; assay: Cell Viability Assay (OPM-2 10 FBS); format: cell-based; settings: OPM-2 cells, 16 h, CellTiter-Glo
Outline: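 IC50 from 4-parameter logistic fit of CellTiter-Glo luminescence. 3000 cells/well, 10% FBS medium, serial compound dilutions, 16 h, 37 °C/5% CO2; read 25 min post-reagent.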

[4] = cell free Mcl-1:Bim TR-FRET, recombinant human Mcl-1 (171-327)
[5] = TR-FRET, 0.1 nM Mcl-1 (171-327), 0.05 nM biotin-Bim (51-76)

T1 sequence (Q07820 171-327): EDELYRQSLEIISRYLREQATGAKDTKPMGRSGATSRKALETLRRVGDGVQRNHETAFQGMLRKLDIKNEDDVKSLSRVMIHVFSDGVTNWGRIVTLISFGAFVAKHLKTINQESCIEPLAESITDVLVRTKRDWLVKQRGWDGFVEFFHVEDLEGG

IC50 [2, 4] [nM]	IC50 [2, 5] [nM]	IC50 ([3]; Homo sapiens, OPM-2, 16 h) [nM]	Compound	IC50 [3] [nM]	also measured
–	–	–	C[C@H]1CC=C[C@H](O)[C@@H]2CC[C@H]2CN2C[C@@]3(CCCc4cc(Cl)ccc43)COc3ccc(cc32)C(=O)NS(=O)(=O)N1CC1CC1	–	ring closure, isolated yield ([1]; from C=CC[C@H](C)N(CC1CC1)S(=O)(=O)NC(=O)c1ccc2c(c1)N(C[C@@H]1CC[C@H]1[C@@H](O)C=C)C[C@@]1(CCCc3cc(Cl)ccc31)CO2, 16-membered ring, Hoveyda-Grubbs II, 1,2-dichloroethane, 1.5 mM, 50.0 °C, 24.0 h): 45%
–	–	–	(1S,3′R,6′R,7′S,8′E,12′R)-12′-((2S)-2-((tert-butyl(diphenyl)silyl)oxy)propyl)-6-chloro-7′-hydroxy-3,4-dihydro-2h,15′h-spiro[naphthalene-1,22′-[20]oxa[13]thia[1,14]diazatetracyclo[14.7.2.0^3,6.0^19,24]pentacosa[8,16,18,24]tetraen]-15′-one 13′,13′-dioxide] or (1S,3′R,6′R,7′S,8′E,12′S)-12′-((2S)-2-((tert-butyl(diphenyl)silyl)oxy)propyl)-6-chloro-7′-hydroxy-3,4-dihydro-2h,15′h-spiro[naphthalene-1,22′-[20]oxa[13]thia[1,14]diazatetracyclo[14.7.2.0^3,6.0^19,24]pentacosa[8,16,18,24]tetraen]-15′-one 13′,13′-dioxide	–	ring closure, isolated yield ([1]; 16-membered ring, Hoveyda-Grubbs II (20 mol%), DCM, 1.5 mM, 45.0 °C): 27%
–	–	–	C[C@H]1CC=CC[C@H](O)[C@@H]2CC[C@H]2CN2C[C@@]3(CCCc4cc(Cl)ccc43)COc3ccc(cc32)C(=O)NS(=O)(=O)[C@H]1C (single isomer, unassigned)	–	ring closure, isolated yield ([1]; from C=CC[C@H](C)[C@H](C)S(=O)(=O)NC(=O)c1ccc2c(c1)N(C[C@@H]1CC[C@H]1[C@@H](O)CC=C)C[C@@]1(CCCc3cc(Cl)ccc31)CO2, 17-membered ring, Hoveyda-Grubbs II (10 mol%), DCM, 1.6 mM, 45.0 °C): 25%
0.44	–	–	O=C1NS(=O)(=O)C2CC2CC=CC(O)C2CCC2CN2CC3(CCCc4cc(Cl)ccc43)COc3ccc1cc32 (single isomer, unassigned) [Example 793]	536	–
–	6.04	10200	CCC1CCC(OC)C=CC2CCC2CN2CC3(CCCc4cc(Cl)ccc43)COc3ccc(cc32)C(=O)NS1(=O)=O (single isomer, unassigned) [Example 199]	–	–
0.27	–	72.5	C[C@@H]1[C@@H](C)C/C=C/[C@H](OCCO)[C@@H]2CC[C@H]2CN2C[C@@]3(CCCc4cc(Cl)ccc43)COc3ccc(cc32)C(=O)NS1(=O)=O [Example 516, (1S,3′R,6′R,7′S,8′E,11′S,12′R)-6-chloro-7′-(2-hydroxyethoxy)-11′,12′-dimethyl-3,4-dihydro-2H,15′H-spiro[naphthalene-1,22′-[20]oxa[13]thia[1,14]diazatetracyclo[14.7.2.0^3,6.0^19,24]pentacosa[8,16,18,24]tetraen]-15′-one 13′,13′-dioxide]	–	–
–	8.98	6530	COc1ccc(CN2[C@@H](C)C/C=C/[C@H](O)[C@@H]3CC[C@H]3CN3C[C@@]4(CCCc5cc(Cl)ccc54)COc4ccc(cc43)C(=O)NS2(=O)=O)cc1 (single isomer, unassigned) [Example 80]	–	–
1.12	–	–	COC(=O)CC[C@]1(C)CC/C=C\[C@H](O)[C@@H]2CC[C@H]2CN2C[C@@]3(CCCc4cc(Cl)ccc43)COc3ccc(cc32)C(=O)NS1(=O)=O (single isomer, unassigned) [Example 562]	986	–
0.365	–	113	C[C@@H]1[C@@H](C)C/C=C/[C@H](OCCN2CCS(=O)(=O)CC2)[C@@H]2CC[C@H]2CN2C[C@@]3(CCCc4cc(Cl)ccc43)COc3ccc(cc32)C(=O)NS1(=O)=O [Example 524, (1S,3′R,6′R,7′S,8′E,11′S,12′R)-6-chloro-7′-(2-(1,1-dioxido-4-thiomorpholinyl)ethoxy)-11′,12′-dimethyl-3,4-dihydro-2H,15′H-spiro[naphthalene-1,22′-[20]oxa[13]thia[1,14]diazatetracyclo[14.7.2.0^3,6.0^19,24]pentacosa [8,16,18,24]tetraen]-15′-one 13′,13′-dioxide]	–	–
–	6.25	2380	C[C@@H]1C/C=C/[C@H](O)[C@@H]2CC[C@H]2CN2C[C@@]3(CCCc4cc(Cl)ccc43)COc3ccc(cc32)C(=O)NS(=O)(=O)N1C[C@H]1CCCO1 [Example 55, (1S,3′R,6′R,7′S,8′E,11R)-6-chloro-7′-hydroxy-11′-methyl-12′-((2R)-tetrahydro-2-furanylmethyl)-3,4-dihydro-2H,15′H-spiro[naphthalene-1,22′-[20]oxa[13]thia[1,12,14]triazatetracyclo[14.7.2.0^3,6.0^19,24]pentacosa[8,16,18,24]tetraen]-15′-one 13′,13′-dioxide]	–	–
0.365	–	147	C[C@@H]1[C@@H](C)C/C=C/[C@H](OCCN2CCOCC2=O)[C@@H]2CC[C@H]2CN2C[C@@]3(CCCc4cc(Cl)ccc43)COc3ccc(cc32)C(=O)NS1(=O)=O [Example 727, (1S,3′R,6′R,7′S,8′E,11′S,12′R)-6-chloro-11′,12′-dimethyl-7′-(2-(3-oxo-4-morpholinyl)ethoxy)-3,4-dihydro-2H,15′H-spiro[naphthalene-1,22′-[20]oxa[13]thia[1,14]diazatetracyclo[14.7.2.0^3,6.0^19,24]pentacosa [8,16,18,24]tetraen]-15′-one-13′, 13′-dioxide]	–	–
–	0.127	14400	C[C@@H]1CC/C=C/[C@H](OCC(=O)O)[C@@H]2CC[C@H]2CN2C[C@@]3(CCCc4cc(Cl)ccc43)COc3ccc(cc32)C(=O)NS1(=O)=O [Example 407, (((1S,3′R,6′R,7′S,8′E,12′R)-6-chloro-12′-methyl-13′,13′-dioxido-15′-oxo-3,4-dihydro-2H-spiro[naphthalene-1,22′-[20]oxa[13]thia[1,14]diazatetracyclo[14.7.2.0^3,6.0^19,24]pentacosa [8,16,18,24]tetraen]-7′-yl)oxy)acetic acid]	–	–
–	0.168	8160	O=C(O)CCN1CC/C=C/[C@H](O)[C@@H]2CC[C@H]2CN2C[C@@]3(CCCc4cc(Cl)ccc43)COc3ccc(cc32)C(=O)NS1(=O)=O [Example 33, 3-((1S,3′R,6′R,7′S,8′E)-6-chloro-7′-hydroxy-13′,13′-dioxido-15′-oxo-3,4-dihydro-2H,12′H-spiro[naphthalene-1,22′-[20]oxa[13]thia[1,12,14]triazatetracyclo[14.7.2.0^3,6.0^19,24]pentacosa[8,16,18,24]tetraen]-12′-yl)propanoic Acid]	–	–
–	0.491	555	CCN1[C@@H](C)C/C=C/[C@H](O)[C@@H]2CC[C@H]2CN2C[C@@]3(CCCc4cc(Cl)ccc43)COc3ccc(cc32)C(=O)NS1(=O)=O (single isomer, unassigned) [Example 57]	–	–
–	1.45	587	CO[C@H]1C[C@@H](N2[C@@H](C)C/C=C\[C@H](O)[C@@H]3CC[C@H]3CN3C[C@@]4(CCCc5cc(Cl)ccc54)COc4ccc(cc43)C(=O)NS2(=O)=O)C1 [Example 78, (1S,3′R,6′R,7′S,8′Z,11′S)-6-chloro-7′-hydroxy-12′-(cis-3-methoxycyclobutyl)-11′-methyl-3,4-dihydro-2H,15′H-spiro[naphthalene-1,22′-[20]oxa[13]thia[1,12,14]triazatetracyclo[14.7.2.0^3,6.0^19,24]pentacosa[8,16,18,24]tetraen]-15′-one 13′,13′-dioxide]	–	–
–	0.19	151	C[C@@H]1[C@@H](C)C/C=C/[C@H](OCC(=O)N(C)C)[C@@H]2CC[C@H]2CN2C[C@@]3(CCCc4cc(Cl)ccc43)COc3ccc(cc32)C(=O)NS1(=O)=O [Example 295, 2-(((1S,3′R,6′R,7′S,8′E,11′S,12′R)-6-chloro-11′,12′-dimethyl-13′,13′-dioxido-15′-oxo-3,4-dihydro-2H-spiro[naphthalene-1,22′-[20]oxa[13]thia[1,14]diazatetracyclo[14.7.2.0^3,6.0^19,24]pentacosa [8,16,18,24]tetraen]-7′-yl)oxy)-N,N-dimethylacetamide]	–	–

Compound	IC50 [2, 4] [nM]	IC50 [2, 5] [nM]	IC50 ([3]; Homo sapiens, OPM-2, 16 h) [nM]	IC50 [3] [nM]	also measured
CO[C@@H]1/C=C/[C@H](O)[C@@H]2CC[C@H]2CN2C[C@@]3(CCCc4cc(Cl)ccc43)COc3ccc(cc32)C(=O)NS(=O)(=O)[C@@H](C)C1 (single isomer, unassigned) [Example 490]	2.09	–	–	7960	–
COCCOCC[C@@H]1[C@@H](C)C/C=C/[C@H](O)[C@@H]2CC[C@H]2CN2C[C@@]3(CCCc4cc(Cl)ccc43)COc3ccc(cc32)C(=O)NS1(=O)=O (single isomer, unassigned) [Example 401]	–	0.531	–	452	–
CO[C@H](C)C[C@H]1CC/C=C/[C@H](O)[C@@H]2CC[C@H]2CN2C[C@@]3(CCCc4cc(Cl)ccc43)COc3ccc(cc32)C(=O)NS1(=O)=O (single isomer, unassigned) [Example 508]	6.02	–	–	2470	–
C[C@@H]1[C@@H](C)C/C=C/C[C@H](O)[C@@H]2CC[C@H]2CN2C[C@@]3(CCCc4cc(Cl)ccc43)COc3ccc(cc32)C(=O)NS1(=O)=O (single isomer, unassigned) [Example 555]	4.77	–	–	2610	–
COCC[C@@H]1[C@@H](C)C/C=C\[C@H](O)[C@@H]2CC[C@H]2CN2C[C@@]3(CCCc4cc(Cl)ccc43)COc3ccc(cc32)C(=O)NS1(=O)=O (single isomer, unassigned) [Example 394]	–	1.26	–	1250	–
CNC(=O)[C@@H](OC)[C@@H]1CC[C@@H]2CC[C@H]2CN2C[C@@]3(CCCc4cc(Cl)ccc43)COc3ccc(cc32)C(=O)NS(=O)(=O)[C@H](C)[C@@H](C)C1 (single isomer, unassigned) [Example 363]	–	0.793	–	483	–
O=C1NS(=O)(=O)C(c2ccccc2)CC/C=C/[C@H](O)[C@@H]2CC[C@H]2CN2C[C@@]3(CCCc4cc(Cl)ccc43)COc3ccc1cc32 (single isomer, unassigned) [Example 675]	0.437	–	–	480	–
